Residues, ends and D or L forms follow the SMILES beside them.
Tested on: E. coli O157:H7
Assay type: cell-based, Escherichia coli
Details: screening-stage peptides tested at 1, 6, 12 and 25 μg/mL
Description: In the present invention we used the statistical thermodynamics algorithm TANGO to identify aggregation prone regions (APR) in the proteome of E. coli strain O157:H7. This yielded 3535 sequences of at least 6 amino acids in length and a TANGO score of at least 20%. In order to generate efficient aggregation seeds, we employed a previously devised tandem repeat design ^19, 21, in which the APRs are repeated once and separated by a linker. Given the length limitation on solid phase peptide synthesis with regard to yield and purity, we focused on the 1542 APRs with a length of 7 amino acids. In order to maximize the potential of these peptides to induce aggregation in E. coli, we ranked the APRs by their frequency of occurrence throughout the E. coli proteome, allowing a single amino acid mismatch, and selected the first 75 most frequently occurring sequences from this list (Table 4). In the design pattern, and in order to increase the colloidal stability of these aggregating peptides, the APRs are flanked by aggregation gatekeepers, a class of residues that was previously shown to reduce aggregation kinetics^22-24. […] To generate the tandem we used a single proline residue as a linker between the gatekeeper-flanked APRs. In addition to the 75 peptides generated in this fashion, we added 2 variants of each of the first 25 peptides in the list by randomly mutating one residue in the first APR repeat to arginine to further modulate the aggregation propensity of the peptides (Table 4). All the peptides were generated using solid phase synthesis at 200 nmole scale and dissolved in DMSO to a theoretical stock concentration of 2 mM (assuming 100% synthesis efficiency). Peptide activity on the growth of E. coli O157:H7 was measured at dilutions of the peptide corresponding to concentrations of 1, 6, 12 and 25 μg/mL. […] The Matthews Correlations Coefficient (MCC) with the measured activity was 0.1 at 12 μg/mL and 0.24 at 25 μg/mL.

SMILES | E. coli O157 (apparent MIC in screen)
CC(C)C[C@H](NC(=O)[C@H](C)NC(=O)[C@H](CC(C)C)NC(=O)[C@@H](NC(=O)[C@H](C)NC(=O)[C@H](CO)NC(=O)[C@H](CCCNC(=N)N)NC(=O)[C@@H]1CCCN1C(=O)[C@H](CCCNC(=N)N)NC(=O)[C@H](CCCNC(=N)N)NC(=O)[C@H](CC(C)C)NC(=O)[C@H](CC(C)C)NC(=O)[C@H](C)NC(=O)[C@H](CCCNC(=N)N)NC(=O)[C@@H](NC(=O)[C@H](C)NC(=O)[C@H](CO)NC(=O)[C@@H](N)CCCNC(=N)N)C(C)C)C(C)C)C(=O)N[C@@H](CC(C)C)C(=O)N[C@@H](CCCNC(=N)N)C(=O)N[C@@H](CCCNC(=N)N)C(=O)O [Peptide P118] (H-RSAVRALLRRPRSAVLALLRR-OH; N-terminus and C-terminus assumed) | 25 µg/mL
CC[C@H](C)[C@H](NC(=O)[C@H](CCCNC(=N)N)NC(=O)[C@@H]1CCCN1C(=O)[C@H](CCCNC(=N)N)NC(=O)[C@H](CCCNC(=N)N)NC(=O)[C@H](CC(N)=O)NC(=O)[C@H](CC(C)C)NC(=O)[C@@H](NC(=O)[C@H](CCCNC(=N)N)NC(=O)[C@@H](NC(=O)[C@@H](NC(=O)[C@@H](NC(=O)[C@@H](N)CCCNC(=N)N)[C@@H](C)CC)C(C)C)[C@@H](C)O)[C@@H](C)O)C(=O)N[C@H](C(=O)N[C@H](C(=O)N[C@H](C(=O)N[C@H](C(=O)N[C@@H](CC(C)C)C(=O)N[C@@H](CC(N)=O)C(=O)N[C@@H](CCCNC(=N)N)C(=O)N[C@@H](CCCNC(=N)N)C(=O)O)[C@@H](C)O)C(C)C)[C@@H](C)O)C(C)C [Peptide P125] (H-RIVTRTLNRRPRIVTVTLNRR-OH; N-terminus and C-terminus assumed) | 25 µg/mL
CC(C)C[C@H](NC(=O)[C@H](C)NC(=O)[C@H](CCCNC(=N)N)NC(=O)[C@@H]1CCCN1C(=O)[C@H](CCCNC(=N)N)NC(=O)[C@H](CCCNC(=N)N)NC(=O)[C@H](CCCNC(=N)N)NC(=O)[C@@H](NC(=O)[C@H](C)NC(=O)[C@@H](NC(=O)[C@H](CC(C)C)NC(=O)[C@H](CC(C)C)NC(=O)[C@H](C)NC(=O)[C@@H](N)CCCNC(=N)N)[C@@H](C)O)C(C)C)C(=O)N[C@@H](CC(C)C)C(=O)N[C@H](C(=O)N[C@@H](C)C(=O)N[C@H](C(=O)N[C@@H](CC(C)C)C(=O)N[C@@H](CCCNC(=N)N)C(=O)N[C@@H](CCCNC(=N)N)C(=O)O)C(C)C)[C@@H](C)O [Peptide P116] (H-RALLTAVRRRPRALLTAVLRR-OH; N-terminus and C-terminus assumed) | 6 µg/mL
CC(C)C[C@H](NC(=O)CNC(=O)[C@H](CCCNC(=N)N)NC(=O)[C@@H]1CCCN1C(=O)[C@H](CCCNC(=N)N)NC(=O)[C@H](CCCNC(=N)N)NC(=O)[C@H](C)NC(=O)[C@H](CC(C)C)NC(=O)[C@H](CCCNC(=N)N)NC(=O)[C@H](C)NC(=O)[C@H](CC(C)C)NC(=O)[C@H](CC(C)C)NC(=O)CNC(=O)[C@@H](N)CCCNC(=N)N)C(=O)N[C@@H](CC(C)C)C(=O)N[C@@H](C)C(=O)N[C@@H](CC(C)C)C(=O)N[C@@H](CC(C)C)C(=O)N[C@@H](C)C(=O)N[C@@H](CCCNC(=N)N)C(=O)N[C@@H](CCCNC(=N)N)C(=O)O [Peptide P89] (H-RGLLARLARRPRGLLALLARR-OH; N-terminus and C-terminus assumed) | 12 µg/mL
CC(C)C[C@H](NC(=O)[C@H](C)NC(=O)[C@@H](NC(=O)[C@H](CC(C)C)NC(=O)[C@H](CCC(N)=O)NC(=O)[C@H](CCCNC(=N)N)NC(=O)[C@@H]1CCCN1C(=O)[C@H](CCCNC(=N)N)NC(=O)[C@H](CCCNC(=N)N)NC(=O)[C@@H](NC(=O)[C@H](CC(C)C)NC(=O)[C@H](CCCNC(=N)N)NC(=O)[C@H](C)NC(=O)[C@@H](NC(=O)[C@H](CC(C)C)NC(=O)[C@H](CCC(N)=O)NC(=O)[C@@H](N)CCCNC(=N)N)C(C)C)C(C)C)C(C)C)C(=O)N[C@@H](CC(C)C)C(=O)N[C@H](C(=O)N[C@@H](CCCNC(=N)N)C(=O)N[C@@H](CCCNC(=N)N)C(=O)O)C(C)C [Peptide P92] (H-RQLVARLVRRPRQLVALLVRR-OH; N-terminus and C-terminus assumed) | 6 µg/mL
CC(C)C[C@H](NC(=O)[C@H](C)NC(=O)[C@@H](N)CCCNC(=N)N)C(=O)N[C@@H](CC(C)C)C(=O)N[C@@H](CCCNC(=N)N)C(=O)N[C@H](C(=O)N[C@@H](CC(C)C)C(=O)N[C@@H](CC(C)C)C(=O)N[C@@H](CCCNC(=N)N)C(=O)N[C@@H](CCCNC(=N)N)C(=O)N1CCC[C@H]1C(=O)N[C@@H](CCCNC(=N)N)C(=O)N[C@@H](C)C(=O)N[C@@H](CC(C)C)C(=O)N[C@@H](CC(C)C)C(=O)N[C@H](C(=O)N[C@H](C(=O)N[C@@H](CC(C)C)C(=O)N[C@@H](CC(C)C)C(=O)N[C@@H](CCCNC(=N)N)C(=O)N[C@@H](CCCNC(=N)N)C(=O)O)[C@@H](C)O)[C@@H](C)O)[C@@H](C)O [Peptide P105] (H-RALLRTLLRRPRALLTTLLRR-OH; N-terminus and C-terminus assumed) | 6 µg/mL
CC(C)C[C@H](NC(=O)[C@H](C)NC(=O)[C@H](CCCNC(=N)N)NC(=O)[C@@H]1CCCN1C(=O)[C@H](CCCNC(=N)N)NC(=O)[C@H](CCCNC(=N)N)NC(=O)[C@H](CC(C)C)NC(=O)[C@H](CC(C)C)NC(=O)[C@@H](NC(=O)[C@@H](NC(=O)[C@H](CC(C)C)NC(=O)[C@H](CC(C)C)NC(=O)[C@H](C)NC(=O)[C@@H](N)CCCNC(=N)N)[C@@H](C)O)[C@@H](C)O)C(=O)N[C@@H](CC(C)C)C(=O)N[C@H](C(=O)N[C@H](C(=O)N[C@@H](CC(C)C)C(=O)N[C@@H](CC(C)C)C(=O)N[C@@H](CCCNC(=N)N)C(=O)N[C@@H](CCCNC(=N)N)C(=O)O)[C@@H](C)O)[C@@H](C)O [Peptide P5] (H-RALLTTLLRRPRALLTTLLRR-OH; N-terminus and C-terminus assumed) | 12 µg/mL
CC(C)C[C@H](NC(=O)[C@H](CC(N)=O)NC(=O)[C@H](CC(C)C)NC(=O)[C@H](CC(C)C)NC(=O)[C@@H](NC(=O)[C@H](CC(C)C)NC(=O)[C@H](CC(C)C)NC(=O)[C@H](CCCNC(=N)N)NC(=O)[C@@H]1CCCN1C(=O)[C@H](CCCNC(=N)N)NC(=O)[C@H](CCCNC(=N)N)NC(=O)[C@H](CC(C)C)NC(=O)[C@H](CC(N)=O)NC(=O)[C@H](CC(C)C)NC(=O)[C@H](CC(C)C)NC(=O)[C@@H](NC(=O)[C@H](CC(C)C)NC(=O)[C@H](CC(C)C)NC(=O)[C@@H](N)CCCNC(=N)N)[C@@H](C)O)[C@@H](C)O)C(=O)N[C@@H](CCCNC(=N)N)C(=O)N[C@@H](CCCNC(=N)N)C(=O)O [Peptide P49] (H-RLLTLLNLRRPRLLTLLNLRR-OH; N-terminus and C-terminus assumed) | 12 µg/mL
CC(C)C[C@H](NC(=O)[C@H](C)NC(=O)[C@H](CC(C)C)NC(=O)[C@H](CC(C)C)NC(=O)[C@H](CC(C)C)NC(=O)[C@H](CCCNC(=N)N)NC(=O)[C@@H]1CCCN1C(=O)[C@H](CCCNC(=N)N)NC(=O)[C@H](CCCNC(=N)N)NC(=O)[C@H](CO)NC(=O)[C@H](CC(C)C)NC(=O)[C@H](CC(C)C)NC(=O)[C@H](C)NC(=O)[C@H](CC(C)C)NC(=O)[C@H](CC(C)C)NC(=O)[C@H](CC(C)C)NC(=O)[C@@H](N)CCCNC(=N)N)C(=O)N[C@@H](CC(C)C)C(=O)N[C@@H](CO)C(=O)N[C@@H](CCCNC(=N)N)C(=O)N[C@@H](CCCNC(=N)N)C(=O)O [Peptide P3] (H-RLLLALLSRRPRLLLALLSRR-OH; N-terminus and C-terminus assumed) | 12 µg/mL
CC(C)C[C@H](NC(=O)[C@H](C)NC(=O)[C@H](CCCNC(=N)N)NC(=O)[C@@H]1CCCN1C(=O)[C@H](CCCNC(=N)N)NC(=O)[C@H](CCCNC(=N)N)NC(=O)[C@H](CC(C)C)NC(=O)[C@@H](NC(=O)[C@H](C)NC(=O)[C@@H](NC(=O)[C@H](CC(C)C)NC(=O)[C@H](CC(C)C)NC(=O)[C@H](C)NC(=O)[C@@H](N)CCCNC(=N)N)[C@@H](C)O)C(C)C)C(=O)N[C@@H](CC(C)C)C(=O)N[C@H](C(=O)N[C@@H](C)C(=O)N[C@H](C(=O)N[C@@H](CC(C)C)C(=O)N[C@@H](CCCNC(=N)N)C(=O)N[C@@H](CCCNC(=N)N)C(=O)O)C(C)C)[C@@H](C)O [Peptide P16] (H-RALLTAVLRRPRALLTAVLRR-OH; N-terminus and C-terminus assumed) | 25 µg/mL
CC(C)C[C@H](NC(=O)CNC(=O)[C@H](CCCNC(=N)N)NC(=O)[C@@H]1CCCN1C(=O)[C@H](CCCNC(=N)N)NC(=O)[C@H](CCCNC(=N)N)NC(=O)[C@H](CCC(N)=O)NC(=O)[C@H](CC(C)C)NC(=O)[C@H](C)NC(=O)[C@H](CCCNC(=N)N)NC(=O)[C@H](CC(C)C)NC(=O)[C@H](CC(C)C)NC(=O)CNC(=O)[C@@H](N)CCCNC(=N)N)C(=O)N[C@@H](CC(C)C)C(=O)N[C@@H](CC(C)C)C(=O)N[C@@H](C)C(=O)N[C@@H](CC(C)C)C(=O)N[C@@H](CCC(N)=O)C(=O)N[C@@H](CCCNC(=N)N)C(=O)N[C@@H](CCCNC(=N)N)C(=O)O [Peptide P124] (H-RGLLRALQRRPRGLLLALQRR-OH; N-terminus and C-terminus assumed) | 12 µg/mL

Reference: patent US11872262B2, “Means and methods for treating bacterial infections” (VIB VZW, priority 2017, dated 2024)
